Test results as given in publication PMC6691788, “Design and synthesis of phthalazine-based compounds as potent anticancer agents with potential antiangiogenic activity via VEGFR-2 inhibition” (Journal of Enzyme Inhibition and Medicinal Chemistry, 2019).

Key:
HT29 = test: NCI 60 cell panel SRB screen; assay type: cell-based; settings: Homo sapiens, HT-29
UACC-257 = test: NCI 60 cell panel SRB screen; assay type: cell-based; settings: Homo sapiens
A549/ATCC = test: NCI 60 cell panel SRB screen; assay type: cell-based; settings: Homo sapiens
OVCAR-8 = test: NCI 60 cell panel SRB screen; assay type: cell-based; settings: Homo sapiens
VEGFR-2 tyrosine kinase = target: T1, VEGFR-2 tyrosine kinase (Homo sapiens, UniProt P35968); test: In vitro VEGFR-2 tyrosine kinase assay (BPS Bioscience); assay type: biochemical; settings: read-out: VEGFR-2 % inhibition; 10 μM concentration
T1 construct: purchased BPS Bioscience 40301
Procedure, shortened: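 For IC50, ADP formation after a 30-min 30 °C reaction was detected by ADP-Glo luminescence in duplicate, blank-subtracted and fitted as log inhibitor versus normalised response. The 10 µM single-dose test instead measured remaining ATP (Kinase-Glo Plus) after 40 min at 30 °C with poly(Glu,Tyr) substrate, 10 μM ATP, pH 7.4, 1% DMSO.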

HOP-62 = test: NCI 60 cell panel SRB screen; assay type: cell-based; settings: Homo sapiens
MOLT-4 = test: NCI 60 cell panel SRB screen; assay type: cell-based; settings: Homo sapiens
OVCAR-4 = test: NCI 60 cell panel SRB screen; assay type: cell-based; settings: Homo sapiens
A498 = test: NCI 60 cell panel SRB screen; assay type: cell-based; settings: Homo sapiens
CAKI-1 = test: NCI 60 cell panel SRB screen; assay type: cell-based, human
MDA-MB 231/ATCC = test: NCI 60 cell panel SRB screen; assay type: cell-based; settings: Homo sapiens
SN12C = test: NCI 60 cell panel SRB screen; assay type: cell-based; settings: Homo sapiens
HOP-92 = test: NCI 60 cell panel SRB screen; assay type: cell-based; settings: Homo sapiens
SW-620 = test: NCI 60 cell panel SRB screen; assay type: cell-based; settings: Homo sapiens
NCI/ADR-RES = test: NCI 60 cell panel SRB screen; assay type: cell-based; settings: Homo sapiens
SK-MEL-28 = test: NCI 60 cell panel SRB screen; assay type: cell-based; settings: Homo sapiens
UO-31 = test: NCI 60 cell panel SRB screen; assay type: cell-based; settings: Homo sapiens
SF-268 = test: NCI 60 cell panel SRB screen; assay type: cell-based; settings: Homo sapiens
HS 578T = test: NCI 60 cell panel SRB screen; assay type: cell-based; settings: Homo sapiens
NCI-H322M = test: NCI 60 cell panel SRB screen; assay type: cell-based; settings: Homo sapiens
[1] = single dose 10 μM, read-out: percent cell growth promotion
[2] = 5 log dose, 48 h, read-out: LC50 (the source's name)

T1 sequence (P35968 20-1356): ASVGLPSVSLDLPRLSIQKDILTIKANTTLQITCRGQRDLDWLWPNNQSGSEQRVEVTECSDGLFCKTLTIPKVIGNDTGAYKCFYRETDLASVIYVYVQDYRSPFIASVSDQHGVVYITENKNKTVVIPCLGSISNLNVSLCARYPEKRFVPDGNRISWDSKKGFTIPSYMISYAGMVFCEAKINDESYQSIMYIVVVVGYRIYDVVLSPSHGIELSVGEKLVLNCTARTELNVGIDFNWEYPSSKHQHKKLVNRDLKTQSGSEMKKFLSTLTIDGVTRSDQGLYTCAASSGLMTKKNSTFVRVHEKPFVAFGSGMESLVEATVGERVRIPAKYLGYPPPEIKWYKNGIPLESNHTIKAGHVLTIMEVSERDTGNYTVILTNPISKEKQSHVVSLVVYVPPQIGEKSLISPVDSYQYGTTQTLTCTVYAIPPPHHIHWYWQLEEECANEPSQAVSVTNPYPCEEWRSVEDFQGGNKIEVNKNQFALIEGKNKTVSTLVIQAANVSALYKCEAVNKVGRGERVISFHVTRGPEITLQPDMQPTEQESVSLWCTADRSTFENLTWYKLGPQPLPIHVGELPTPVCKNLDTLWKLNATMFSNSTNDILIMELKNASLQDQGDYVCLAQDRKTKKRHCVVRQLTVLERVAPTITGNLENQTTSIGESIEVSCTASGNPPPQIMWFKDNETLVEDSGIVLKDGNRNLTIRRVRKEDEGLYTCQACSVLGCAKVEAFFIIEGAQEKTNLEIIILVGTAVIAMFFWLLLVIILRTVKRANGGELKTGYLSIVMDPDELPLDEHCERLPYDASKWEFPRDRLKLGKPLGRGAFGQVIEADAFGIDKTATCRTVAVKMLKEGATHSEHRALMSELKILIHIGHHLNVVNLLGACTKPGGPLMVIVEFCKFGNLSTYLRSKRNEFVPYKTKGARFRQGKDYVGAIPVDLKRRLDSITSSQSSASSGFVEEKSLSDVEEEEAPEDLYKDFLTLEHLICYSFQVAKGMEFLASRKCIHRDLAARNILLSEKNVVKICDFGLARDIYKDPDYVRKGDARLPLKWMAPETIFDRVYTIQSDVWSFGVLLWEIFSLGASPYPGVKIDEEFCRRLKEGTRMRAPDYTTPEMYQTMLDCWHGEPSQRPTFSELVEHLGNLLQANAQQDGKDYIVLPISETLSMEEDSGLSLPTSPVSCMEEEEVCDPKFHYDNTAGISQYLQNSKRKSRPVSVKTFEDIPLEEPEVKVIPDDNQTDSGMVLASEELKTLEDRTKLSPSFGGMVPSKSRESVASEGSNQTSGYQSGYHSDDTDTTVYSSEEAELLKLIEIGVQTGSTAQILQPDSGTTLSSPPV

**Q.** Which results are given for `Cc1nnc(Nc2ccc(NC(=O)Nc3ccc(Cl)cc3)cc2)c2ccccc12` [Compound 6e, 1–(4-Chlorophenyl)-3–(4-(4-methylphthalazin-1-ylamino)phenyl)urea]?
**A.** GI50 (HT29; HT29, 5 log dose): 1.78 µM; IC (TGI) (HT29; HT29, 5 log dose): 3.67 µM; CC50 (HT29; HT29, 5 log dose, 48 h, read-out: LC50 (the source's name)): 7.56 µM; activity at 10 µM (HT29; HT29, single dose 10 μM, read-out: percent cell growth promotion): 2.24%; GI50 (UACC-257; UACC-257): 2.39 µM; IC (TGI) (UACC-257; UACC-257, read-out: TGI): 5.3 µM; activity at 10 µM (UACC-257; UACC-257, read-out: percent cell growth promotion): 73.8%; GI50 (A549/ATCC; 5 log dose): 3.24 µM; IC (TGI) (A549/ATCC; 5 log dose): 8.59 µM; LC50 (concentration killing 50% of cells) (A549/ATCC; 5 log dose, 48 h): 37.9 µM; activity at 10 µM (A549/ATCC; [1]): 26.4%; GI50 (OVCAR-8; OVCAR-8, 5 log dose): 3.35 µM; IC (TGI) (OVCAR-8; OVCAR-8, 5 log dose): 9.32 µM; CC50 (OVCAR-8; OVCAR-8, 5 log dose, 48 h, read-out: LC50 (the source's name)): 47.4 µM; activity at 10 µM (OVCAR-8; OVCAR-8, single dose 10 μM, read-out: percent cell growth promotion): 31.4%; inhibition at 10 µM (VEGFR-2 tyrosine kinase): 19%; GI50 (HOP-62; HOP-62, 5 log dose): 1.81 µM; IC (TGI) (HOP-62; HOP-62, 5 log dose): 3.7 µM; CC50 (HOP-62; HOP-62, 5 log dose, 48 h, read-out: LC50 (the source's name)): 7.56 µM; activity at 10 µM (HOP-62; HOP-62, single dose 10 μM, read-out: percent cell growth promotion): 44.2%; GI50 (MOLT-4; MOLT-4, 5 log dose): 2.36 µM; IC (TGI) (MOLT-4; MOLT-4, 5 log dose): 6 µM; CC50 (MOLT-4; MOLT-4, 5 log dose, 48 h, read-out: LC50 (the source's name)): > 100 µM; activity at 10 µM (MOLT-4; MOLT-4, single dose 10 μM, read-out: percent cell growth promotion): 9.76%; GI50 (OVCAR-4; OVCAR-4, 5 log dose): 2.79 µM; IC (TGI) (OVCAR-4; OVCAR-4, 5 log dose): 8.36 µM; CC50 (OVCAR-4; OVCAR-4, 5 log dose, 48 h, read-out: LC50 (the source's name)): 58.2 µM; activity at 10 µM (OVCAR-4; OVCAR-4, single dose 10 μM, read-out: percent cell growth promotion): 42.6%; GI50 (A498; A498, 5 log dose): 3.21 µM; IC (TGI) (A498; A498, 5 log dose): 10.5 µM; CC50 (A498; A498, 5 log dose, 48 h, read-out: LC50 (the source's name)): 38.5 µM; activity at 10 µM (A498; A498, single dose 10 μM, read-out: percent cell growth promotion): 35.4%; TGI (CAKI-1; CAKI-1, 5 log dose): 12.8 µM; GI50 (CAKI-1; Homo sapiens, CAKI-1, 5 log dose): 3.49 µM; CC50 (CAKI-1; Homo sapiens, CAKI-1, 5 log dose, 48 h, read-out: LC50 (the source's name)): 43.6 µM; activity at 10 µM (CAKI-1; Homo sapiens, CAKI-1, single dose 10 μM, read-out: percent cell growth promotion): 33.9%; GI50 (MDA-MB 231/ATCC; MDA-MB-231): 2.38 µM; IC (TGI) (MDA-MB 231/ATCC; MDA-MB-231, read-out: TGI): 5.94 µM; activity at 10 µM (MDA-MB 231/ATCC; MDA-MB-231, read-out: percent cell growth promotion): 23.1%; CC50 (MDA-MB 231/ATCC; MDA-MB-231, MDA-MDA 231/ATCC, 5 log dose, 48 h, read-out: LC50 (the source's name)): 33.9 µM; GI50 (SN12C; 5 log dose): 2.86 µM; IC (TGI) (SN12C; 5 log dose): 9.41 µM; CC50 (SN12C; [2]): 60.1 µM; activity at 10 µM (SN12C; [1]): 60.1%; GI50 (HOP-92; HOP-92, 5 log dose): 2.56 µM; IC (TGI) (HOP-92; HOP-92, 5 log dose): 6.6 µM; CC50 (HOP-92; HOP-92, 5 log dose, 48 h, read-out: LC50 (the source's name)): 42 µM; activity at 10 µM (HOP-92; HOP-92, single dose 10 μM, read-out: percent cell growth promotion): 4.62%; GI50 (SW-620; SW-620, 5 log dose): 2.15 µM; IC (TGI) (SW-620; SW-620, 5 log dose): 4.76 µM; CC50 (SW-620; SW-620, 5 log dose, 48 h, read-out: LC50 (the source's name)): 11.9 µM; activity at 10 µM (SW-620; SW-620, single dose 10 μM, read-out: percent cell growth promotion): 20.3%; GI50 (NCI/ADR-RES; 5 log dose): 3.63 µM; IC (TGI) (NCI/ADR-RES; 5 log dose): 14.9 µM; CC50 (NCI/ADR-RES; [2]): > 100 µM; activity at 10 µM (NCI/ADR-RES; [1]): 45.1%; GI50 (SK-MEL-28; SK-MEL-28): 1.63 µM; IC (TGI) (SK-MEL-28; SK-MEL-28, read-out: TGI): 3.2 µM; activity at 10 µM (SK-MEL-28; SK-MEL-28, read-out: percent cell growth promotion): -11.9%; CC50 (SK-MEL-28; SK-MEL-28, 5 log dose, 48 h, read-out: LC50 (the source's name)): 6.29 µM; GI50 (UO-31; UO-31, 5 log dose): 2.14 µM; IC (TGI) (UO-31; UO-31, 5 log dose): 6.01 µM; CC50 (UO-31; UO-31, 5 log dose, 48 h, read-out: LC50 (the source's name)): 31.8 µM; activity at 10 µM (UO-31; UO-31, single dose 10 μM, read-out: percent cell growth promotion): 51.2%; GI50 (SF-268; SF-268, 5 log dose): 2.57 µM; IC (TGI) (SF-268; SF-268, 5 log dose): 7.17 µM; CC50 (SF-268; SF-268, 5 log dose, 48 h, read-out: LC50 (the source's name)): 47 µM; activity at 10 µM (SF-268; SF-268, single dose 10 μM, read-out: percent cell growth promotion): 48.7%; GI50 (HS 578T; Hs-578T): 2.52 µM; IC (TGI) (HS 578T; Hs-578T, read-out: TGI): 6.4 µM; activity at 10 µM (HS 578T; Hs-578T, read-out: percent cell growth promotion): 3.43%; CC50 (HS 578T; HS 578T, 5 log dose, 48 h, read-out: LC50 (the source's name)): > 100 µM; GI50 (NCI-H322M; 5 log dose): 3.31 µM; IC (TGI) (NCI-H322M; 5 log dose): 1.25 µM; CC50 (NCI-H322M; [2]): 69.5 µM; activity at 10 µM (NCI-H322M; [1]): 47.8%
